Experimental data as given in US20240043448A1, “Small Molecule Inhibitors of KRAS G12C Mutant” (Merck Sharp & Dohme LLC, priority 2019, published 2024).
Read-outs that look alike come from different tables or passages of the source.

Assays:
[1] = molecular target: Biotinylated KRAS G12C protein (Homo sapiens (Human), UniProt P01116, C118S/C51S/C80L/G12C); test: SOS-catalyzed nucleotide exchange assay (TR-FRET); assay type: biochemical; conditions: in vitro apparent potency; preincubation time of 60 minutes prior to addition of SOS
Experimental: The SOS-catalyzed nucleotide exchange assay utilizes a preformed complex of recombinant biotinylated KRAS protein containing G12C/C51S/C80L/C118S mutations (183 amino acids; biotin on K10; leader sequence which is an AviTag; referred to as SEQ ID NO: 1 or “Biotinylated KRAS G12C protein” hereafter), Bodipy-GDP, and Terbium-streptavidin. Compounds are added to this complex and then after incubation for 60 minutes, the mixture is treated with recombinant SOS protein and unlabeled GTP. Small molecule inhibitors stabilize the Bodipy-GDP complex whereas the untreated protein rapidly exchanges Bodipy-GDP for unlabeled GTP resulting in reduced TR-FRET signal.
Biotinylated KRAS G12C protein (SEQ ID NO: 1) is diluted to 2 μM in an EDTA buffer (20 mM HEPES, 150 mM sodium chloride, 10 mM EDTA, and 0.01% Tween) and incubated at room temperature for one hour. This mixture is then further diluted to 90 nM in an assay buffer (20 mM HEPES, 150 mM sodium chloride, 10 mM magnesium chloride, and 0.005% Tween) containing 15 nM of Terbium-Streptavidin (Invitrogen, catalog #PV3577) and 900 nM of Bodipy-GDP and incubated at room temperature for six hours. This solution is referred to as Biotinylated KRAS G12C mixture.
Each test compound (10 mM stock in DMSO) is diluted in DMSO to make a 10-point, 3-fold dilution series in a 384-well low dead volume microplate (Labcyte, catalog #LP-0200). Once titrations are made, 10 nL of the diluted compounds is acoustically dispensed into a 384-well plate (Corning, catalog #3820) using an Echo 550 (Labcyte).
Each well of the plate receives 3 μL Biotinylated KRAS G12C mixture that had been incubating for six hours and 3 μL of assay buffer using a BioRAPTR (Beckman Coulter) and is incubated at room temperature for 60 minutes. Each well then receives 3 μL of 240 nM recombinant human SOS protein and 9 mM GTP (Sigma, G8877) in assay buffer and is incubated at room temperature for 60 minutes.
The time-resolved fluorescence resonance energy transfer signal of the plate is measured on an Envision (PerkinElmer) plate reader: Excitation filter=340 nm; emission1=495 nm; emission2=520 nm; dichroic mirror=D400/D505; delay time=100 μs. The signal of each well is determined as the ratio of the emission at 520 nm to that at 495 nm. Percent effect of each well is determined after normalization to control wells containing DMSO (no effect) or a saturating concentration of inhibitor (max effect). The apparent effect as a function of compound concentration is fit to a four parameter logistic equation.

phospho-ERK = test: Cellular phospho-ERK assay; assay type: cell-based; conditions: NCI-H358 cells, 2 hour incubation, ratio of p-Erk vs total Erk, read-out: IC50 (nM) pERK (Cell)
Experimental: NCI-H358 cells (ATCC® CRL-5807™) were cultured in T150 flask in growth medium (RPMI medium 1640-GlutaMAX™-I (ThermoFisher Scientific 61870) containing 10% fetal bovine serum (ThermoFisher Scientific 10091148)). The cells were harvested in growth medium after TrypLE (ThermoFisher scientific 12604021) digestion and were seeded in a 384-well collagen coated cell culture plate (Corning 356702) at a density of 15,000 cells/well, and incubated at 37° C., 5% CO2 overnight. The compound dose-response titrations were prepared and appropriate amounts of compounds were dispensed in a 384-well intermediate plate using an Echo 550 liquid handler. RPMI medium 1640-GlutaMAX™-I were added to the intermediate plate and transferred to 384-well cell culture plate, which was incubated at 37° C., 5% CO2 for 2 hours. After removal of medium from the plate, cells were lysed in lysis buffer from Alpha SureFire® Ultra™ Multiplex p-Erk and total Erk assay kit (PerkinElmer MPSU-PTERK) containing Halt™ Protease and Phosphotase inhibitor cocktail (ThermoFisher Scientific 78446) at room temperature with constant shaking at 300 rpm for 30 minutes. The cell lysates were then transferred to OptiPlate-384 plate (PerkinElmer 6005620) and the phosphorylation of Erk and total Erk levels were detected by Alpha SureFire Ultra Multiplex p-Erk kit (PerkinElmer MPSU-PTERK) following the manufacturer's protocol. Assay plates were read on an EnVision Multimode Plate Reader (PerkinElmer), and the ratio of p-Erk vs total Erk in each well was used as the final readout. Dose response curves were analyzed using a 4-parameter logistic model to calculate IC50 values using spotfire software.

| Molecule | IC50 [1] [nM] | IC50 (phospho-ERK) [nM] | IC50 (phospho-ERK; Homo sapiens, NCI-H358, 2 h) [nM] |
| --- | --- | --- | --- |
| C=CC(=O)N1CCN(c2nc(=O)n3c4nc(c(F)cc24)-c2c(ccc(F)c2F)OCC(F)(F)CCc2ccnc(C(C)C)c2-3)[C@@H](C)C1 [Example 97, 12,12,17,18,21-pentafluoro-2-[(2S)-2-methyl-4-(prop-2-enoyl)piperazin-1-yl]-6-(propan-2-yl)-10,11,12,13-tetrahydro-4H-1,19-(ethanediylidene)pyrido[4,3-f]pyrimido[1,6-h][1,8,10]benzoxadiazacyclotridecin-4-one] | 0.56 | 3 | – |
| C=C(F)C(=O)N1CCN(c2nc(=O)n3c4nc(c(F)cc24)-c2c(F)cccc2OCCCCc2ccnc(C(C)C)c2-3)[C@@H](C)C1 [Example 85, 18,21-difluoro-2-[(2S)-4-(2-fluoroprop-2-enoyl)-2-methylpiperazin-1-yl]-6-(propan-2-yl)-10,11,12,13-tetrahydro-4H-1,19-ethenopyrido[4,3-f]pyrimido[1,6-h][1,8,10]benzoxadiazacyclotridecin-4-one] | 47 | – | 198 |
| C=CC(=O)N1C[C@H](C)N(c2nc(=O)n3c4nc(c(F)cc24)-c2c(F)cccc2OCC(F)(F)CCc2ccnc(C(C)C)c2-3)C[C@H]1C [Example 52, (5aRa,18aRa)-2-[(2S,5R)-2,5-dimethyl-4-(prop-2-enoyl)piperazin-1-yl]-12,12,18,21-tetrafluoro-6-(propan-2-yl)-10,11,12,13-tetrahydro-4H-1,19-(ethanediylidene)pyrido[4,3-f]pyrimido[1,6-h][1,8,10]benzoxadiazacyclotridecin-4-one] | 1.8 | 9.3 | – |
| C=CC(=O)N1CCN(c2nc(=O)n3c4nc(c(F)cc24)-c2c(F)cccc2OCCCc2ccnc(C(C)C)c2-3)C(C(F)F)C1 (stereo not drawn) [Example 99, 2-[2-(difluoromethyl)-4-(prop-2-enoyl)piperazin-1-yl]-17,20-difluoro-6-(propan-2-yl)-11,12-dihydro-4H,10H-1,18-ethenopyrido[4,3-e]pyrimido[1,6-g][1,7,9]benzoxadiazacyclododecin-4-one] | 12 | – | 22 |
| C=CC(=O)N1C[C@H](C)N(c2nc(=O)n3c4nc(c(F)cc24)-c2cccc(O)c2OCCCc2ccnc(C(C)C)c2-3)C[C@H]1C [Example 113, 2-[(2S,5R)-2,5-dimethyl-4-(prop-2-enoyl)piperazin-1-yl]-20-fluoro-14-hydroxy-6-(propan-2-yl)-11,12-dihydro-4H,10H-1,18-(ethanediylidene)pyrido[4,3-e]pyrimido[1,6-g][1,7,9]benzoxadiazacyclododecin-4-one] | 33 | 113 | – |
| C=C(C#N)C(=O)N1C[C@H](C)N(c2nc(=O)n3c4nc(c(Cl)cc24)-c2c(F)ccc(F)c2OCCCc2ccnc(C(C)C)c2-3)C[C@H]1C [Example 121, 2-{(2R,5S)-4-[20-chloro-14,17-difluoro-4-oxo-6-(propan-2-yl)-11,12-dihydro-4H,10H-1,18-ethenopyrido[4,3-e]pyrimido[1,6-g][1,7,9]benzoxadiazacyclododecin-2-yl]-2,5-dimethylpiperazine-1-carbonyl}prop-2-enenitrile] | 195 | > 30000 | – |
| C=CC(=O)N1C[C@@H](C)N(c2nc(=O)n3c4nc(c(Cl)cc24)-c2c(F)ccc(F)c2OCCOc2ccnc(C(C)C)c2-3)C[C@@H]1C [Example 51-1, (5aSa,17aRa)-20-Chloro-2-[(2S,5R)-2,5-dimethyl-4-(prop-2-enoyl)piperazin-1-yl]-14,17-difluoro-6-(propan-2-yl)-11,12-di[(^2H)hydro](11,12-^2H2)-4H-1,18-(ethanediylidene)pyrido[4,3-e]pyrimido[1,6-g][1,4,7,9]benzodioxadiazacyclododecin-4-one] | 1 | 13 | – |
| [2H]C1([2H])Oc2ccc(F)c(F)c2-c2nc3c(cc2F)c(N2C[C@@H](C)N(C(=O)C=C)C[C@@H]2C)nc(=O)n3-c2c(ccnc2C(C)C)OC1([2H])[2H] [Example 64, 2-[(2S,5R)-2,5-Dimethyl-4-(prop-2-enoyl)piperazin-1-yl]-16,17,20-trifluoro-6-(propan-2-yl)-11,12-di[(^2H)hydro](11,12-^2H2)-4H-1,18-(ethanediylidene)pyrido [4,3-e]pyrimido[1,6-g][1,4,7,9] benzodioxadiazacyclo-dodecin-4-one] | 5.7 | – | 33 |
| C=CC(=O)N1C[C@H](C)N(c2nc(=O)n3c4nc(c(F)cc24)-c2c(F)c(F)cc(F)c2OCCCc2ccnc(C(C)C)c2-3)C[C@H]1C [Example 77, 2-[(2S,5R)-2,5-dimethyl-4-(prop-2-enoyl)piperazin-1-yl]-14,16,17,20-tetrafluoro-6-(propan-2-yl)-11,12-dihydro-4H,10H-1,18-ethenopyrido[4,3-e]pyrimido[1,6-g][1,7,9]benzoxadiazacyclododecin-4-one] | 2.4 | – | 45 |
| C=CC(=O)N1CCN(c2nc(=O)n3c4nc(c(F)cc24)-c2c(F)cccc2OCCCc2ccnc(C(C)C)c2-3)C[C@@H]1CC [Example 103, 2-[(3S)-3-ethyl-4-(prop-2-enoyl)piperazin-1-yl]-17,20-difluoro-6-(propan-2-yl)-11,12-dihydro-4H,10H-1,18-ethenopyrido[4,3-e]pyrimido[1,6-g][1,7,9] benzoxadiazacyclododecin-4-one] | 107 | – | 847 |
| C=CC(=O)N1CCN(c2nc(=O)n3c4nc(c(F)cc24)-c2c(F)cccc2CCCOc2ccnc(C(C)C)c2-3)[C@@H](C)C1 (single isomer, unassigned) [Example 20a] | 12 | 30 | – |
| C=CC(=O)N1C[C@H](C)N(c2nc(=O)n3c4nc(c(F)cc24)-c2c(ccc(F)c2F)OCCC(C)c2ccnc(C(C)C)c2-3)C[C@H]1C (stereo partly drawn) [Example 90, 2-[(2S,5R)-2,5-dimethyl-4-(prop-2-enoyl)piperazin-1-yl]-16,17,20-trifluoro-10-methyl-6-(propan-2-yl)-11,12-dihydro-4H,10H-1,18-ethenopyrido[4,3-e]pyrimido[1,6-g][1,7,9]benzoxadiazacyclododecin-4-one] | 1.4 | – | 6.8 |
| [(2S)-4-[17,20-difluoro-4- oxo-6-(propan-2-yl)-11,12- dihydro-4H-1,18- (ethanediylidene)pyrido[4,3- e]pyrimido[1,6-g][1,4,7,9] benzodioxadiazacyclo- dodecin-2-yl]-1-(prop-2- enoyl)piperazin-2- yl]acetonitrile [Example 14a] | 8.1 | 1240 | – |

Continued, values first:

| IC50 [1] [nM] | IC50 (phospho-ERK) [nM] | IC50 (phospho-ERK; Homo sapiens, NCI-H358, 2 h) [nM] | Molecule |
| --- | --- | --- | --- |
| 6.5 | – | 11 | C=CC(=O)N1C[C@H](C)N(c2nc(=O)n3c4nc(c(F)cc24)-c2c(F)cccc2OCCOc2ccnc(C(C)C)c2-3)C[C@H]1C (single isomer, unassigned) [Example 15a] |
| 6.8 | 117 | – | C=CC(=O)N1CCN(c2nc(=O)n3c4nc(c(F)cc24)-c2c(F)cccc2C(=O)NCCCc2ccnc(C(C)C)c2-3)[C@@H](C)C1 (single isomer, unassigned) [Example 19a] |
